Laboratory results: patent US20250215015A1 (THE REGENTS OF THE UNIVERSITY OF CALIFORNIA, priority 2022, published 2025)
Where two headings read alike, the source gives them in different places.

Legend:
[1] = test system: U87 GBM; test: GBM agent potency in U87 cells; format: cell-based
Excerpt: UCN-01 potency. The potency of UCN-01 markedly exceeds that of standard GBM agents in GBM U87 cells (Table 1), and it engages a unique pattern of signaling pathways to drive apoptosis. The ability of UCN-01 at noncytotoxic doses to abrogate G2 arrest is evident in p53 dysregulated cells. p53 is mutated in about 35% of primary GBM and 65% of secondary GBM. p53 pathway dysregulation occurs in 86% of GBM.

[2] = test system: phosphorylation of Akt; test: Western blot for Akt, P-Akt, cleaved PARP; format: cell-based; settings: U87 cells
Excerpt: FIG. 5A: Western blot analysis for Akt, P-Akt, cleaved PARP. […] Representative blot from two independent experiments is shown.

[3] = test system: U87 cells; test: FACS analysis for DNA content; format: cell-based; settings: treated cells
[4] = test system: U87 flank tumors; test: U87 flank tumor growth in mice; format: in vivo, nu/nu mice
[5] = Toxicity in mice: body weight and liver enzymes; format: in vivo; settings: mice bearing U87 GBM flank tumors
Excerpt: Weight declined with STS but not PBS or LSTS. Bottom panel is bar graph depicting liver enzymes ALT/AST before and after treatment. For free STS the post treatment levels were flagged as abnormal (stars). ALT/AST enzyme levels were normal with empty liposomes (control) and LSTS. Reference levels shown by dashed lines.

[6] = In vitro unbound fraction of UCN-01 in human plasma; format: in vitro ADME; parameters: dose or concentration left out as unconfirmed
Excerpt: (§1) UCN-01 pharmacokinetics and nanoliposomes. Free UCN-01 is instantly bound by human alpha-1 acid glycoprotein (AAG) plasma protein with extremely high affinity and remains in circulation for remarkably extended periods of time. […] Unfortunately this greatly diminishes the availability of free (active) compound so that the in vivo effectiveness of UCN-01 is compromised even when it enters tumor tissue when bound to AAG the UCN-01 molecule is not bioavailable. Increasing the UCN-01 dose to sufficiently saturate AAG in the plasma elevates the risk of toxicity.

[7] = In vitro unbound fraction of UCN-01 in mouse plasma; format: in vitro ADME; parameters: dose or concentration left out as unconfirmed
Excerpt: as §1

[8] = In vitro unbound fraction of UCN-01 in rat plasma; format: in vitro ADME; parameters: dose or concentration left out as unconfirmed
Excerpt: as §1

[9] = In vitro unbound fraction of UCN-01 in dog plasma; format: in vitro ADME; parameters: dose or concentration left out as unconfirmed
Excerpt: as §1

[10] = test system: GBM patient cancer stem cell derived GBM tumorsphere lines; test: GBM cytotoxicity, MTT assay in tumorsphere lines; format: cell-based; settings: 8 GBM tumorsphere lines, almost all cell lines
Method: GBM cytotoxicity with UCN-01. 8 different GBM patient cancer stem cell derived GBM tumorsphere lines were incubated with a range of UCN-01 doses. The percent viable cells were determined with the MTT assay.

[11] = test system: radioresistant U87 GBM cells; test: GBM radiosensitization in culture; format: cell-based; settings: mildly cytotoxic nM levels, clinically relevant radiation doses
Method: Bar graph of radiation dose and UCN-01 dose (nM) vs percent viable U87 GBM cells. Red columns for 0 Gy and purple for 5 Gy—a clinically relevant dose.
GBM radiosensitization with low doses of the staralog UCN-01. […] As a precursor to studies with a range of staralogs, extensive model investigations with the class parent staralog model system, STS were performed.

[12] = test system: U87 glioblastoma cells; test: Potentiation of temozolomide; format: cell-based

Compound `O=c1[nH]cc(F)c(=O)[nH]1` [Compound 5-FU, 5-FU] has an IC50 [1] of 2500 nM.
In the case of `COc1cccc2c1C(=O)c1c(O)c3c(c(O)c1C2=O)C[C@@](O)(C(=O)CO)C[C@@H]3O[C@H]1C[C@H](N)[C@H](O)[C@H](C)O1` [Doxorubicin], the IC50 ([1]; Homo sapiens, U-87 MG) is reported as 1000 nM.
For `CN[C@@H]1C[C@H]2O[C@@](C)([C@@H]1OC)n1c3ccccc3c3c4c(c5c6ccccc6n2c5c31)C(=O)NC4` [STS, Staurosporine], the PARP cleavage [2] was “stimulated caspase 3 dependent PARP cleavage”, the phospho-Akt [2] was “suppression of phospho-Akt” and the “DNA content (FACS)” value [3] was “G0 shift consistent with apoptosis”. For the same compound, the “in vivo GBM proliferation (Ki-67)” value [4] was “did not” and the body weight [5] was “reduction in body weight”.
In the case of `CN[C@@H]1C[C@H]2O[C@@](C)([C@@H]1OC)n1c3ccccc3c3c4c(c5c6ccccc6n2c5c31)C(=O)N[C@H]4O` [UCN-01, 7-hydroxystaurosporine], the IC50 [1] is reported as 50 nM, the Unbound fraction % [6] is reported as <0.02% and the Unbound fraction % [7] is reported as 1.14%. For the same compound, the Unbound fraction % [8] was 1.75%, the Unbound fraction % [9] was 0.49% and the IC50 values [10] was “low nanomolar (nM) range”. The sensitization to radiation [11] was “able to sensitize” and the “potentiation of temozolomide (TMZ)” value [12] was “potentiated temozolomide (TMZ)”.
In the case of `O=NN(CCCl)C(=O)NCCCl` [BCNU], the IC50 [1] is reported as 60000 nM.
In the case of `Cn1nnc2c(C(N)=O)ncn2c1=O` [Temozolomide], the IC50 ([1]; Homo sapiens, U-87 MG) is reported as 50000 nM.
